Entries after “also recorded” stand apart in the source; their conditions may differ.
How the values were obtained:
Assay type in all cases: cell-based, human
DU 145 cells [1] = experiment: MTT cytotoxicity (cell viability) assay, DU 145
Method: Cell viability was determined by the MTT [3-(4,5-dimethylthiazol-2-yl)-2,5-diphenyltetrazolium bromide] assay, as previously described by Mosmann with modifications. Briefly, cells were detached from the tissue culture flask and pelleted by centrifugation at 1000 rpm for 5 min. Then, the density of the viable cells was counted using a haemocytometer. Cells were then plated in a 96-well flat bottom micro-titer plate (Nunc) at a concentration of 10^4 cells/mL and incubated in a 5% CO2 incubator at 37 °C overnight to allow the cells to adhere to the bottom of the wells. After 24 h, the media was aspirated off and replaced with fresh media containing sample compounds (curcumin and curcumin analogues) of seven different concentrations ranging from 1.56 µM–100 µM and incubated at 37 °C, 5% CO2 for 72 h. Separately, the sample compounds were prepared in a stock solution of 50 mM in 100% dimethyl sulfoxide (DMSO, Molecular Biology Grade, Sigma-Aldrich, St. Louis, MO, USA) and diluted in the culture media to a working concentration of 200 µM. Curcumin, the parent compound which was used as the positive control was also prepared in the similar manner. A two-fold serial dilution was done for each sample in triplicates down the columns of the plate, yielding a final volume and concentration of 100 µL in 0.2% DMSO in each wells. Following treatment, 50 µL MTT solutions (0.5 mg/mL in PBS) was added to each well and incubated for another 4 h at 37 °C in a humidified 5% CO2 incubator. The supernatant was replaced with 100 µL of DMSO and the optical density (OD) was measured at 570/650 nm using a micro-plate ELISA reader (Bio-Rad Laboratories, Hercules, CA, USA). The percentage of viable cells was calculated based on the ratio of the corrected absorbance of sample-treated cells to the corrected absorbance of the control (0.2% DMSO-treated cells) multiplied by 100. The percentage of cell viability was determined as follows: % Cell viability= OD of treated cells /OD of control ×100
For each compound tested, the EC50 value was generated from the log dose-response curves for each cell line using the Graphpad Prism version 5.04 for Windows (Graphpad Software, La Jolla, CA, USA). […] Cytotoxicity of each tested compound is expressed as the EC50 value. Based on the EC50 values, selectivity index (SX) value was also determined. Selectivity index is a special parameter applied as a selectivity indicator of tested compounds towards cancer cells. The SX represents the ratio of EC50 value obtained in toxicity testing using the normal cell lines to the EC50 values of the toxicity testing of the cancer cells, and then multiplied by 100. All the compounds were assessed for their potential toxicity against normal, non-cancerous cells. […] The SX values were calculated using the following equation: SX = EC50 (normal cells)/EC50 (cancer cells) × 100

[2] = system: caspase-3 activity in PC-3 cells; experiment: Caspase-3 colorimetric activity assay, PC-3
Method: Caspase-3 activity was determined using the caspase-3 colorimetric assay kit (Sigma-Aldrich) according to manufacturer’s protocol. The assay is based on spectrophotometric detection of p-nitroanilide (pNA) a colored molecule, after its cleavage from the labeled substrate DEVD-pNA by the activity of caspase-3 enzyme. PC-3 and DU 145 cells were treated with MS17 at different concentrations (EC50, 2 × EC50, 3 × EC50) at various time points, 6, 12, 24, 48 and 72 h as appropriate. Following treatment, cells were washed with PBS and suspended with lysis buffer (50 mM HEPES, pH 7.4, 5 mM CHAPS, 5 mM DTT) for 30 min on ice at the concentration of 10^7 cells per 100 µL buffer. Cells were then spun for 30 min at 16,000× g, 4 °C. Protein lysate concentrations were measured based on the Bradford assay method using the Cayman Chemical protein determination kit (Cayman Chemical Company, Ann Arbor, MI, USA) based on the manufacturer’s protocol. Assay was performed on a 96-well micro-titer plate by adding equal amount of protein lysate (~100 µg) into wells containing the assay buffer (20 mM HEPES pH 7.4, 0.1% CHAPS, 5 mM DTT, 2 mM EDTA). Reaction was started by the addition of 10 µL of substrate Ac-DEVD-pNA (2 mM). The effect of Ac-DEVD-CHO, a caspase-3 inhibitor was also studied simultaneously on caspase-3 activity. Ten microliter of the inhibitor (200 µM) was added into the wells containing the protein lysate, assay buffer and the substrate. Caspase-3 activity was measured upon the release of pNA molecule, a pale yellow colored product using the micro-plate ELISA reader (Bio-Rad) at the wavelength of 405 nm. Relative caspase-3 activity was expressed as absorbance of enzyme activity compared with the control (untreated cells/DMSO only) based on the equation below: Relative caspase 3 activity= Absorbance of treated cells /Absorbance of control

DU 145 cells [3] = experiment: Free nucleosome detection (Cell Death Detection ELISA), DU 145; details: DU 145, 8.4 µM compared with 4.2 and 12.6 µM, all time points
Method: To confirm the presence of histone-bound DNA fragments (free nucleosomes) in the prostate cancer cells after the treatment of MS17, Cell Death Detection ELISA^PLUS kit (Roche Diagnostics) was used according to the manufacturer’s protocol. Cells were plated on a bottom flat tissue culture plates at a concentration of 10^5 cells per well and incubated for 24 h to allow the cells to adhere. After overnight incubation, MS17 at various concentrations (EC50, 2 × EC50, 3 × EC50) were added to a final volume of 100 µL per well and further incubated for 24, 48 and 72 h. The plate was centrifuged at 600 rpm at 4 °C for 10 min. The cell pellet containing the apoptotic bodies was resuspended in lysis buffer and incubated for 30 min at room temperature. […] The amount of nucleosomes retained by the POD in the immunocomplex, corresponding to the extent of apoptosis and necrosis, was determined with 2,2'-azinobis-3-ethyl-benzothiazoline-6-sulfonic acid (ABTS) as substrate using a micro-plate ELISA reader at a wavelength of 405/490 nm. The amount of enrichment of mono- and oligonucleosomes released into the cytoplasm was calculated using the following formula: Enrichment factor= Absorbance of sample/Absorbance of control

SMILES: O=C(C=Cc1ccccc1O)C=Cc1ccccc1O [MS17, 1,5-bis(2-hydroxyphenyl)-1,4-pentadiene-3-one]
- dose from which decrease in cell viability is significant (DU 145 cells [1]; DU 145, MTT, vs untreated): 6.3 µM
- EC50 (DU 145 cells [1]; Homo sapiens, DU-145, MTT, 72 h treatment, mean ± SD, three experiments, read-out: EC50 Values (µM) of Compounds on Cell Lines DU 145): 4.1 ± 0.8 µM
- Selective index (SX) WI-38 vs DU 145 (DU 145 cells [1]; SX = EC50 (WI-38)/EC50 (DU 145) × 100): 126.3
- Selective index (SX) WRL68 vs DU 145 (DU 145 cells [1]; SX = EC50 (WRL68)/EC50 (DU 145) × 100): 134.3
- relative caspase-3 activity (treated vs untreated) ([2]; PC-3, 4.5, 9.0 and 13.5 µM, 48 h): increased significantly; also recorded: significant increase of caspase-3 activity
- relative caspase-3 activity, differences between concentrations ([2]; PC-3, 12, 24 and 72 h): no significant differences of caspase-3 activity
- nucleosomal fragments (enrichment factor) (DU 145 cells [3]): significant increase in nucleosomal fragments
